Experimental data as given in US20040072746A1, “Inhibitors of monocarboxylate transport” (priority 2001, published 2004).

How the values were obtained:
Conditions in all cases: ~2.5 nM radioligand
[1] = MCT filter binding assay, yeast membranes transformed with vector only
Procedure: (§1) For yeast cells transformed with expression plasmids containing the human MCT 1-4 ORFs the ability of membrane preparations to bind radioligand was determined using a single ligand concentration/multi protein concentration binding assay. This generated an estimate of the amount of active binding protein present in each membrane preparation. The ligand concentration used will give an estimate of Bmax that is approximately 90% of the true value. 10 μl of ligand A, B or C that had been diluted 50 fold with assay buffer (50 mM HEPES, 0.1 mM EDTA, 0.15 M NaCl, pH 7.5, 0.5% BSA) was dispensed into wells of a polypropylene microtitre plate. This gives a final radiolabelled ligand concentration of ˜2.5 nM. […] The membranes were diluted to give a known amount/180 μl assay buffer. This is typically in the […] range. For the membranes with high binding site number a more dilute membrane preparation should be added. 180 μl of each membrane solution was then added to each well and incubated at 2 hours at room temperature with shaking. The membranes were harvested onto GF-B filter plates and washed with assay buffer without BSA, dried, scintillant added and counts detected using the relevant program for each ligand on a Packard Top Count plate reader.

human MCT2 = molecular target: T1, human MCT2 (Homo sapiens, UniProt O60669); assay: MCT filter binding assay, yeast membranes, radioligand specific binding
T1 construct: The full length open reading frame for human MCT2 was then subcloned into the S. cerevisiae expression plasmid, pACES14; made in house; host or cells: Saccharomyces cerevisiae BY4742 (jen1 deletion), membrane preparation; plasmid pACES14-hMCT2
T1 sequence (O60669 1-478): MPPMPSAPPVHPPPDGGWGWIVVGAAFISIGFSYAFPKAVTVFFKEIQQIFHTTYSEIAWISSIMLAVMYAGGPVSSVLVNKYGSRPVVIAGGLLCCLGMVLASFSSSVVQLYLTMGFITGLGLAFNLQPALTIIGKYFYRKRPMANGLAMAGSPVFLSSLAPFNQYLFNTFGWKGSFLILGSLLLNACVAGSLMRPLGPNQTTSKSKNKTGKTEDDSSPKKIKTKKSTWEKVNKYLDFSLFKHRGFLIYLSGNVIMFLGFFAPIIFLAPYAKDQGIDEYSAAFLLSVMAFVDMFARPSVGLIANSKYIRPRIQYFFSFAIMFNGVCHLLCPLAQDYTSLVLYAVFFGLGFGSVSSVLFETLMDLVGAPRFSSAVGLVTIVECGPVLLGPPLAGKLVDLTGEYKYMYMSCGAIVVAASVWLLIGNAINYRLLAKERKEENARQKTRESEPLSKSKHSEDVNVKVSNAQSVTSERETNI
Procedure: as §1

human MCT4 = molecular target: T2, human MCT4 (Homo sapiens, UniProt O15427); assay: as above
T2 construct: from the full length copy and subcloned into the S. cerevisiae expression plasmid pACES14; made in house; host or cells: Saccharomyces cerevisiae BY4742 (jen1 deletion), membrane preparation; plasmid pACES14-hMCT4
T2 sequence (O15427 1-465): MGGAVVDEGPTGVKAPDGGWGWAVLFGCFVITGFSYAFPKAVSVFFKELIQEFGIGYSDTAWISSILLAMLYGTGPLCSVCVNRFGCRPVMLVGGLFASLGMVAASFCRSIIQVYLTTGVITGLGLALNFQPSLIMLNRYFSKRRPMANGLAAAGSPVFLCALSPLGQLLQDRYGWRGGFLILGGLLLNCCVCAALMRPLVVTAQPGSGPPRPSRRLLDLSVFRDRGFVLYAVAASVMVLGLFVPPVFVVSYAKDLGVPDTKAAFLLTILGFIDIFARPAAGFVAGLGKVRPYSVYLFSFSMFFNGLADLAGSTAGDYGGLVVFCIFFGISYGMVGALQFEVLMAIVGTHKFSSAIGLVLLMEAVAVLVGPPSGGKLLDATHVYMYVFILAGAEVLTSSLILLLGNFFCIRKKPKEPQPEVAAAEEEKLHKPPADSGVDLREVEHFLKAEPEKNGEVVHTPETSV
Procedure: as §1

human MCT3 = molecular target: T3, human MCT3 (Homo sapiens, UniProt O95907); assay: as above
T3 construct: the full length open reading frame of human MCT3 was subcloned into the S. cerevisiae expression plasmid pACES14; made in house; host or cells: Saccharomyces cerevisiae BY4742 (jen1 deletion), membrane preparation; plasmid pACES14-hMCT3
T3 sequence (O95907 1-504): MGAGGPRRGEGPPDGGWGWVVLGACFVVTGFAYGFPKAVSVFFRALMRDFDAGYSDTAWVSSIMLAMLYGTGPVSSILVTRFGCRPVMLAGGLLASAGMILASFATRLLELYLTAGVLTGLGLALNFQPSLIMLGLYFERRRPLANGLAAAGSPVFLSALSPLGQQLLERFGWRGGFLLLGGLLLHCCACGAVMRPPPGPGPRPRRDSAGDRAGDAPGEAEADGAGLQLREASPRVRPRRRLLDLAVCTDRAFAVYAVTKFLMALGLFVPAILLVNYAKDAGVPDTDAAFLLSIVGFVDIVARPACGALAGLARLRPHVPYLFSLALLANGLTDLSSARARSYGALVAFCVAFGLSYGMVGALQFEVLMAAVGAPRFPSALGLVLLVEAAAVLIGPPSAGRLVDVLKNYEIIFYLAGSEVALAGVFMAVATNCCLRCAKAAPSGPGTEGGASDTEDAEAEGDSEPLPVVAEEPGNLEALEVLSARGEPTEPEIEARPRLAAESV
Procedure: as §1

CC(C)Cc1nn(C)c(=O)c2c(SCCCO)n(Cc3ccccc3[125I])cc12 [Ligand A, 2,6-Dihydro-7-[(3-hydroxypropyl)thio]-6-[(2-[^125I]iodophenyl)methyl]-2-methyl-4-(2-methylpropyl)-1H-pyrrolo[3,4-d]pyridazin-1-one]
Specific binding (cpm) Average ([1]; vector (2 ug)): 1735 cpm | Specific binding (cpm) Average ([1]; vector (20 ug)): 0 cpm | Specific binding (cpm) Average (human MCT2; MCT2 (2 ug)): 7286 cpm | Specific binding (cpm) Average (human MCT2; MCT2 (20 ug)): 14769 cpm | Specific binding (cpm) Average (human MCT4; MCT4 (2 ug)): 405 cpm | Specific binding (cpm) Average (human MCT4; MCT4 (20 ug)): 872 cpm | Specific binding (cpm) Average (human MCT3; MCT3 (2 ug)): 0 cpm | Specific binding (cpm) Average (human MCT3; MCT3 (20 ug)): 0 cpm
